Measurements: PMC7884679 (British Journal of Cancer, 2020)
“Also recorded” adds a separate entry of the source.

Legend:
PI3K lipid kinases = system: PI3K lipid kinases; design: method as in PMID 32220971; conditions: cited from earlier work
human cyclooxygenase 1 = biological target: T1, human cyclooxygenase 1 (Homo sapiens, UniProt P23219); assay: Platelet aggregation in aspirin-naïve patients at the RP2D; assay type: in vivo; conditions: aspirin-naïve cohort, 400 mg BID
T1 construct: endogenous in cells; host or cells: platelets of aspirin-naïve patients treated at the RP2D
T1 sequence (P23219 24-599): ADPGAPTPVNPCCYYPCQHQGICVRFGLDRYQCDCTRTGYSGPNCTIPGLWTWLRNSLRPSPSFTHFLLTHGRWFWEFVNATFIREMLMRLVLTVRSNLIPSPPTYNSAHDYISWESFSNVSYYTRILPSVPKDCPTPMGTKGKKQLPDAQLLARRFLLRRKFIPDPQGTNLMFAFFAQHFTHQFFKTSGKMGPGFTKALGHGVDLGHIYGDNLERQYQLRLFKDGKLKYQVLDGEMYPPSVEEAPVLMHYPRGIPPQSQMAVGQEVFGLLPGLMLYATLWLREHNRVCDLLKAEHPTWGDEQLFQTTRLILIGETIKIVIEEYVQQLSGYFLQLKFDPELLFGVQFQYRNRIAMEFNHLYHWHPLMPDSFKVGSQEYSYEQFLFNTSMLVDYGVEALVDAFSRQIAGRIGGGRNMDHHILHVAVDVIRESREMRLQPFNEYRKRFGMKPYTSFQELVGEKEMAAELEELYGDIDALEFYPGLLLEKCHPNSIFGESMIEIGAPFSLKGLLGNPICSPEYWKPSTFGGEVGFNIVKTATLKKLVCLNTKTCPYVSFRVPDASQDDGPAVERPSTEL

[1] = system: repair of radiation- or chemotherapy-induced DNA DSBs; conditions: preclinical studies ref 6–10; cited from earlier work
phosphorylation of AKT = system: phosphorylation of AKT; design: method as in PMID 32220971; conditions: preclinical experiments ref 8; cited from earlier work
platelet aggregation = conditions: preclinical data; cited from earlier work
DNA-PK = conditions: preclinical ref 6–8; cited from earlier work
clinical = conditions: human, in vivo; for AUC(0-t): AUC0–12; for AUC(0-inf): AUC0–∞; for Vd/F: Vz/f
Procedure: (§1) Safety was assessed through the recording, reporting and analysis of baseline medical conditions, AEs, physical examination findings (including vital signs and monitoring for bleeding), laboratory tests, ECOG PS and 12-lead electrocardiograms. […] PK was assessed using blood samples collected pre-treatment and on-treatment. […] Tumour response was evaluated according to RECIST (v1.1). Target and non-target lesions were measured by computed tomography or magnetic resonance imaging every 6 weeks.
The cut-off for the final analysis was when the last patient completed the dose-escalation phase (29 June 2017). The All Patients Analysis Set comprised all patients who provided informed consent (screening failures plus enrolled patients) and was used to describe patient disposition and deaths. […] The Efficacy Analysis Set, including patients who received at least one treatment dose, was used for all efficacy summaries. […] The Biomarker/Pharmacogenomics Analysis Set included patients who received at least the first dose of study drug and provided at least one pre-dose sample and one post-dose sample.

advanced solid tumours = assay: Tumour response by RECIST v1.1; assay type: in vivo, human
Procedure: as §1
(§2) TEAEs were summarised according to Medical Dictionary for Regulatory Activities (v20.0) preferred term and system organ class. All statistical analyses (except for PK) were performed using SAS 9.1.3 or higher. Tumour assessments, based on investigator evaluations of target, non-target and new lesions according to RECIST (v1.1), were used to derive the best overall response. Trial data were summarised by dose level.

[2] = system: patients with advanced solid tumours; assay: Dose escalation 3 + 3: DLT, MTD, RP2D; assay type: in vivo
Text: Dose escalation was by use of a standard ‘3 + 3’ design, based on the presence/absence of dose-limiting toxicities (DLTs). […] The starting dose was considered to have acceptable safety and to be in the range of the biologically active dose based on in vivo pharmacology data.[7]
The MTD was defined as the dose level below the dose at which two out of six patients experienced a DLT. Once the MTD was established, the RP2D was to be defined by the Safety Monitoring Committee (SMC), either at the MTD level or below, depending on the available safety, efficacy, PK and PD data.
(§3) In addition, a DLT could be identified by the SMC as any TEAE that impaired daily function or abnormality occurring in patients treated with peposertib at any time during the dose escalation part of the study.

[3] = system: patients with advanced solid tumours; assay: Safety and tolerability: treatment-emergent adverse events (CTCAE v4.03); assay type: in vivo
Procedure: as §3, §1, §2

## COc1ccc([C@@H](O)c2cc(-c3ncnc4cc(N5CCOCC5)ccc34)c(F)cc2Cl)nn1 [Peposertib, peposertib]
PI3K lipid kinases; compared with DNA-PK, preclinical studies ref 8
  potency on PI3K lipid kinases: significantly lower potency
PI3K lipid kinases; preclinical ref 8
  potency against DNA-PK versus other PI3K and PI3K-related family members: substantially greater
Human cyclooxygenase 1
  effect on platelet aggregation: very weak effect; also recorded: only a weak effect
[1]
  synergy with radiotherapy and DSB-inducing chemotherapies (e.g. etoposide, doxorubicin): demonstrated synergy
Phosphorylation of AKT
  inhibition of the phosphorylation of AKT: only moderate inhibition
Platelet aggregation
  inhibition of platelet aggregation: reversible inhibition of platelet aggregation at micromolar concentrations
DNA-PK
  concentrations blocking DNA-PK kinase activity: sub-nanomolar
clinical
  Tmax: 1.5 h
  geometric mean percent coefficient of variation (%CV) for Cmax: 15.5–117%
clinical; 100 mg
  AUC(0-t): 2290 ng·h/mL
  AUC(0-inf): 2920 ng·h/mL
  Cmax: 440 ng/mL
  Vd/F: 276 L
clinical; 100 mg, t1/2
  half-life: 5.5 h
clinical; 100 mg, tmax
  Tmax: 1.8 h
clinical; 150 mg
  AUC(0-t): 3040 ng·h/mL
  AUC(0-inf): 3770 ng·h/mL
  Cmax: 695 ng/mL
  Vd/F: 304 L
clinical; 150 mg, t1/2
  half-life: 5.1 h
clinical; 200 mg, tmax
  Tmax: 1.4 h
clinical; 300 mg
  Vd/F: 662 L
clinical; 300 mg, t1/2
  half-life: 4.7 h
clinical; 300 mg, tmax
  Tmax: 1.9 h
clinical; 400 mg
  AUC(0-inf): 4140 ng·h/mL
clinical; 400 mg, tmax
  Tmax: 2.4 h
clinical; mean elimination half-life
  half-life: ~5.5 h
clinical; po, median tmax
  Tmax: 1.1 to 2.5 h
Advanced solid tumours; RECIST v1.1
  patients with stable disease for ≥12 weeks: seven
Advanced solid tumours; RECIST v1.1, all doses
  objective tumour responses (complete or partial): No objective tumour responses
Advanced solid tumours; one patient, metastatic hepatocellular carcinoma, prior progression on sorafenib, at data cut-off
  duration of stable disease: 69 weeks
Advanced solid tumours; tumour assessment at screening only
  patients not evaluable: 16%
Advanced solid tumours; two patients (metastatic renal cell carcinoma; tonsillar squamous cell carcinoma), 400 mg BID
  time remained on treatment: 36 weeks
[2]; dose escalation up to 400 mg BID
  maximum-tolerated dose (MTD): not reached
[2]; human, in vivo, 21 days
  recommended phase 2 dose (RP2D): 400 mg BID
[3]; 100/QD n = 3
  Number of patients with: Any TEAE leading to death: 0 (0) n (%)
  Number of patients with: Any peposertib related TEAE leading to death: 0 (0) n (%)
[3]; 150/BID n = 3
  Number of patients with: Any TEAE leading to death: 0 (0) n (%)
  Number of patients with: Any peposertib related TEAE leading to death: 0 (0) n (%)
[3]; 200/BID n = 3
  Number of patients with: Any TEAE leading to death: 0 (0) n (%)
  Number of patients with: Any peposertib related TEAE leading to death: 0 (0) n (%)
[3]; 200/QD n = 3
  Number of patients with: Any TEAE leading to death: 0 (0) n (%)
  Number of patients with: Any peposertib related TEAE leading to death: 0 (0) n (%)
[3]; 300/BID n = 9
  Number of patients with: Any TEAE leading to death: 0 (0) n (%)
  Number of patients with: Any peposertib related TEAE leading to death: 0 (0) n (%)
[3]; 400/BID (RP2D) n = 6
  Number of patients with: Any TEAE leading to death: 0 (0) n (%)
  Number of patients with: Any peposertib related TEAE leading to death: 0 (0) n (%)
[3]; 400/BID n = 4
  Number of patients with: Any TEAE leading to death: 1 (25) n (%)
  Number of patients with: Any peposertib related TEAE leading to death: 0 (0) n (%)
[3]; Total N = 31
  Number of patients with: Any TEAE leading to death: 1 (3) n (%)
  Number of patients with: Any peposertib related TEAE leading to death: 0 (0) n (%)
[3]; human, in vivo
  Grade 3 peposertib-related maculo-papular rash, patients: 4 n
  Grade 3 peposertib-related nausea, patients: 2 n
  Number of patients with: Any peposertib-related Grade ≥4 TEAE: 0 (0) n (%)
  TEAE constipation, patients: 10 n
  TEAE fatigue, patients: 14 n
  TEAE nausea, patients: 17 n
  TEAE pyrexia, patients: 11 n
  Treatment-related TEAE: Constipation, Grade 3: 0 (0) n (%)
  Treatment-related TEAE: Decreased appetite, Grade 3: 0 (0) n (%)
  Treatment-related TEAE: Diarrhoea, Grade 3: 0 (0) n (%)
  Treatment-related TEAE: Dry mouth, Grade 3: 0 (0) n (%)
  Treatment-related TEAE: Periorbital oedema, Grade 3: 0 (0) n (%)
  Treatment-related TEAE: Vomiting, Grade 3: 0 (0) n (%)
  patients with a serious TEAE: 55%
  patients with at least one TEAE: 31 patients
  patients with at least one TEAE of Grade ≥3: 68%
  patients with peposertib-related Grade 3 TEAEs: 23%
  peposertib-related Grade 4 TEAEs: no peposertib-related Grade 4 TEAEs
[3]; three patients died due to disease progression
  deaths considered treatment-related: None
